Reference: patent US7786124B2, “Heterocyclic substituted pyridine compounds with CXCR3 antagonist activity” (Schering Corporation, priority 2006, dated 2010)
Like-named read-outs stand apart in the source and are kept apart here.

Target: T1, human CXCR3 (N-delta 4) (Homo sapiens, UniProt P49682)
T1 construct: CD8 leader; Flag tag; expressed in transfected cells; membrane preparation
T1 sequence (P49682 5-368 limits assumed): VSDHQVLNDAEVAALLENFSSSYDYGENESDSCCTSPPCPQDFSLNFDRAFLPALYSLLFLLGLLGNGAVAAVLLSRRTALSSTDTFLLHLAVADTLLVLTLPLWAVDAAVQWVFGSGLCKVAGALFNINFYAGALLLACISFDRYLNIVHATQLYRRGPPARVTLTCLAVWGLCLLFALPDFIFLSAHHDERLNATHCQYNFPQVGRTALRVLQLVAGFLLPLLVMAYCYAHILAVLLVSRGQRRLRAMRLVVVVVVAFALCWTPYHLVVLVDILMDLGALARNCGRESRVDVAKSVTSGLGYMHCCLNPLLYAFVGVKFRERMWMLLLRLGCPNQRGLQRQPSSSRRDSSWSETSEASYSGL
Assay: Human CXCR3 (N-delta 4) scintillation proximity binding assay ([125I] IP-10 displacement)
Text: The inventive compounds can readily be evaluated to determine activity at The CXCR3 receptors by known methods, such as, for example, Development of Human CXCR3 (N-delta 4) Binding Assay.
Cloning and Expression of Human CXCR3 (N-Delta 4):
The DNA encoding human CXCR3 was cloned by PCR using human genomic DNA (Promega, Madison, Wis.) as a template. The PCR primers were designed based on the published sequence of human orphan receptor GPR9 (1) with incorporated restriction sites, a Kozak consensus sequence, CD8 leader and Flag tag. The PCR product was subcloned into the mammalian expression vector pME18Sneo, a derivative of the SR-alpha expression vector (designated as pME18Sneo-hCXCR3 (N-delta 4).
IL-3-dependent mouse pro-B cells Ba/F3 were transfected by electroporation in 0.4 ml Dulbecco's PBS containing 4×10^6 cells with 20 μg of pME18Sneo-hCXCR3 (N-delta 4) plasmid DNA. Cells were pulsed at 400 Volts, 100 OHMs, 960 μFd. The transfected cells were under selection with 1 mg/ml G418 (Life Technologies, Gaithersburg, Md.). G418-resistant Ba/F3 clones were screened for CXCR3 expression by specific binding of [^125I] IP-10 (NEN Life Science Products, Boston, Mass.).
Preparation of Ba/F3-hCXCR3 (N-Delta 4) Membranes
Ba/F3 cells expressing human CXCR3 (N-delta 4) were pelleted and resuspended in the lysis buffer containing 10 mM HEPES, pH 7.5 and Complete® protease inhibitors (1 tablet per 100 ml) (Boehringer Mannheim, Indianapolis, Ind.) at a cell density of 20×10^6 cells per ml. After 5 minutes incubation on ice, cells were transferred to 4639 cell disruption bomb (Parr Instrument, Moline, Ill.) and applied with 1,500 psi of nitrogen for 30 minutes on ice. Large cellular debris was removed by centrifugation at 1,000×g. Cell membrane in the supernatant was sedimented at 100,000×g. The membrane was resuspended in the lysis buffer supplemented with 10% sucrose and stored at −80° C. Total protein concentration of the membrane was determined by BCA method from Pierce (Rockford, Ill.).
Human CXCR3 (N-Delta 4) Scintillation Proximity Assay (SPA)
For each assay point, 2 μg of membrane was preincubated for 1 hr with 300 μg wheat germ agglutinin (WGA) coated SPA beads (Amersham, Arlington Heights, Ill.) in the binding buffer (50 mM HEPES, 1 mM CaCl2, 5 mM MgCl2, 125 mM NaCl, 0.002% NaN3, 1.0% BSA) at room temperature. The beads were spun down, washed once, resuspended in the binding buffer and transferred to a 96-well Isoplate (Wallac, Gaithersburg, Md.). 25 pM of [^125I] IP-10 with tested compounds in a series of titration were added to start the reaction. After 3 hr reaction at room temperature, the amount of [^125I]; IP-10 bound to the SPA beads was determined with a Wallac 1450 Microbeta counter.

[1] = human CXCR3, Table 1, read-out: Ki rating
[2] = Human CXCR3, Table 2, read-out: Ki

Ki [1] | Ki (human CXCR3, read-out: Ki) | Ki [2] | Compound
< 25 nM |  |  | CC[C@H]1CN(c2ccc(-c3nnc[nH]3)nc2C)CCN1C1CCN(C(=O)c2ccc(Cl)c(F)c2)CC1 [Compound 6]
25 to 100 nM |  |  | CC[C@H]1CN(c2ccc(-c3nnc(N)o3)nc2C)[C@H](C)CN1C1CCN(C(=O)c2ccc(Cl)c(F)c2)CC1 [Compound 13]
< 25 nM | 0.2 nM |  | CCNc1nnc(-c2ccc(N3CCN(C4CCN(Cc5ccc(Cl)cc5)CC4)[C@@H](CC)C3)c(C)n2)o1 [Compound 1]
< 25 nM |  | 0.3 nM | CC[C@H]1CN(c2ccc(-c3nnc(N)o3)nc2C)CCN1C1CCN(Cc2ccc(Cl)cc2)CC1 [Compound 14]
< 25 nM |  |  | CCNc1nnc(-c2ccc(N3CCN(C4CCN(C(=O)c5ccc(F)c(F)c5)CC4)[C@@H](CC)C3)c(C)n2)o1 [Compound 8]
< 25 nM |  | 2.4 nM | CC[C@H]1CN(c2ccc(-c3nnc(N)o3)nc2C)CCN1C1CCN(C(=O)c2ccc(Cl)cc2)CC1 [Compound 15]
< 25 nM |  |  | CCNc1nnc(-c2ccc(N3CCN(C4CCN(C(=O)c5ccc(Cl)c(F)c5)CC4)[C@@H](CC)C3)c(C)n2)o1 [Compound 5]

Second part, the compound before the results:

Compound | Ki [1] | Ki (human CXCR3, read-out: Ki) | Ki [2]
CC[C@H]1CN(c2ccc(-c3nnc(N)o3)nc2C)CCN1C1CCN(C(=O)c2ccc(Cl)c(F)c2)CC1 [Compound 7] | < 25 nM |  | 
CC[C@H]1CN(c2ccc(-c3nnc(N)o3)nc2C)CCN1C1CCN(Cc2ccc(OC(F)(F)F)cc2)CC1 [Compound 3] | < 25 nM |  | 0.5 nM
CCNc1nnc(-c2ccc(N3C[C@H](CC)N(C4CCN(Cc5ccc(Cl)cc5)CC4)C[C@H]3C)c(C)n2)o1 [Compound 2] | < 25 nM |  | 0.4 nM
CC[C@H]1CN(c2ccc(-c3nnc(N)o3)nc2C)CCN1C1CCN(C(=O)c2ccc(F)c(F)c2)CC1 [Compound 9] | < 25 nM |  | 
CCNc1nnc(-c2ccc(N3C[C@H](CC)N(C4CCN(C(=O)c5ccc(Cl)cc5)CC4)C[C@H]3C)c(C)n2)o1 [Compound 11] | 25 to 100 nM |  | 
CC[C@H]1CN(c2ccc(-c3nnc(N)o3)nc2C)[C@H](C)CN1C1CCN(C(=O)c2ccc(Cl)cc2)CC1 [Compound 12] | 25 to 100 nM |  | 
CCNc1nnc(-c2ccc(N3C[C@H](CC)N(C4CCN(C(=O)c5ccc(Cl)c(F)c5)CC4)C[C@H]3C)c(C)n2)o1 [Compound 10] | 25 to 100 nM |  | 
CCNc1nnc(-c2ccc(N3CCN(C4CCN(C(=O)c5ccc(Cl)cc5)CC4)[C@@H](CC)C3)c(C)n2)o1 [Compound 4] | < 25 nM |  | 
